These results are taken from patent publication US20260248842A1, “METHOD FOR TRANSIENT ACIDIFICATION OF WOUNDS” (SePRO Corporation, priority 2023, published 2026).

A short description of the data set: Early studies: permeation and transient acidification of pig skin. The note with it: same amounts of ammonia equivalents and sulfuric acid in comparison solutions.

As to `N.N.O=S(=O)(O)O` [ammonium sulfate], the “permeation of pig skin and transient acidification” value was “neither of the acidified ammonium salts solutions permeated pig skin”.
